# Literature values in US20080175925A1, “Method and composition for the treatment of herpes virus” (priority 2007, published 2008).
# Columns and labels:
# HSV-1 [1] = details: guinea pig model
# HSV-1 [2] = details: in vitro
# [3] = system: Herpesvirus hominis genital strain MVC 70 (herpesvirus h simplex 0-2); details: solution of 0.02% w/v
# [4] = system: Herpesvirus hominis oral stain SUE (herpesvirus h simplex-1); details: solution of 0.02% w/v
smiles,measurement,setting,value
Nc1nc2c(ncn2COCCO)c(=O)[nH]1 [Acyclovir],viral titers,HSV-1 [1],reduced viral titers
same,"lesion development, duration and severity scores",HSV-1 [1]; compared to vehicle control or acyclovir,"did not reduce lesion development, duration or severity"
"NC(CCC(=O)NC(CS)C(=O)NCC(=O)O)C(=O)O (stereo not drawn) [GSH, 2-amino-5-{[2-[(carboxymethyl)amino]-1-(mercaptomethyl)-2-oxoethyl]amino}-5-oxopentanoic acid]",inhibition of replication of HSV-1,HSV-1 [2]; addition of exogenous GSH,> 99%
same,intracellular GSH levels after virus challenge,HSV-1 [2]; addition of exogenous GSH to infected cells,restore its intracellular levels almost up to those found in uninfected cells
[H]/N=C(\N/C(=N/[H])NCCCCCCNC(=N)NC(=N)Nc1ccc(Cl)cc1)Nc1ccc(Cl)cc1 [chlorhexidine],infectivity of HVH strain MVC 70 (HSV-2),[3],reduced the infectivity
same,infectivity of HVH strain SUE (HSV-1),[4],reduced the infectivity
